Measurements taken from PubChem BioAssay AID192 (DTP/NCI, 2004).
Values joined by “and” are separate entries in the source; they are usually repeats but may differ in a detail not shown here. Equal values may be shown once. Inconclusive results and toxic doses are left out.

System: BDF1 mice, B16 melanoma ip, median survival T/C
Assay: NCI In Vivo Anticancer Drug Screen. Data for tumor model B16 Melanoma (intraperitoneal) in B6D2F1 (BDF1) mice
Details: endpoint: median survival time, higher = longer survival
How it was run: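 Each result divides a survival or tumor-size measurement in the compound-treated group by the same measurement in the vehicle group.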

[1] = dose: 100.0 mg/kg/injection, schedule: Q01DX009 (ip), vehicle: Klucel (hydroxypropylcellulose) (HPC)
[2] = dose: 200.0 mg/kg/injection, schedule: Q01DX009 (ip), vehicle: Klucel (hydroxypropylcellulose) (HPC)
[3] = dose: 100.0 mg/kg/injection, schedule: Q04DX003 (ip), vehicle: saline with Tween-80
[4] = dose: 25.0 mg/kg/injection, schedule: Q01DX009 (ip), vehicle: saline with Tween-80
[5] = dose: 50.0 mg/kg/injection, schedule: Q01DX009 (ip), vehicle: saline with Tween-80
[6] = dose: 100.0 mg/kg/injection, schedule: Q01DX009 (ip), vehicle: saline with Tween-80
[7] = dose: 200.0 mg/kg/injection, schedule: Q01DX009 (ip), vehicle: saline with Tween-80
[8] = dose: 400.0 mg/kg/injection, schedule: Q01DX009 (ip), vehicle: saline with Tween-80
[9] = dose: 25.0 mg/kg/injection, schedule: Q01DX009 (ip), vehicle: Klucel (hydroxypropylcellulose) (HPC)
[10] = dose: 12.5 mg/kg/injection, schedule: Q01DX009 (ip), vehicle: Klucel (hydroxypropylcellulose) (HPC)
[11] = dose: 50.0 mg/kg/injection, schedule: Q01DX009 (ip), vehicle: Klucel (hydroxypropylcellulose) (HPC)
[12] = dose: 100.0 mg/kg/injection, schedule: Q01DX009 (ip), vehicle: saline
[13] = dose: 400.0 mg/kg/injection, schedule: Q01DX009 (ip), vehicle: saline
[14] = dose: 12.5 mg/kg/injection, schedule: Q01DX009 (ip), vehicle: saline with Tween-80

CCOc1ccc(/C=N\N=C\c2ccc(OCC)cc2)cc1
T/C [1]: 95 % of control
T/C [2]: 90 % of control and 110 % of control

CC(=O)Nc1cccc2c1CCCC2
T/C (dose: 100.0 mg/kg/injection, schedule: Q04DX003 (ip), vehicle: gum acacia): 113 % of control
T/C (dose: 200.0 mg/kg/injection, schedule: Q04DX003 (ip), vehicle: gum acacia): 97 % of control
T/C (dose: 400.0 mg/kg/injection, schedule: Q04DX003 (ip), vehicle: gum acacia): 95 % of control

COC12[C@@H]3N[C@@H]3CN1C1=C(C(=O)C(NCCSSCCNC3=C(C)C(=O)C4=C(C3=O)C(COC(N)=O)[C@]3(OC)C5N[C@@H]5CN43)=C(C)C1=O)[C@@H]2COC(N)=O (stereo partly drawn)
T/C (dose: 0.2 mg/kg/injection, schedule: Q04DX003 (ip), vehicle: other): 168 % of control
T/C (dose: 0.4 mg/kg/injection, schedule: Q04DX003 (ip), vehicle: other): 241 % of control
T/C (dose: 0.8 mg/kg/injection, schedule: Q04DX003 (ip), vehicle: other): 295 % of control
T/C (dose: 1.5 mg/kg/injection, schedule: Q04DX003 (ip), vehicle: saline with Tween-80): 184 % of control
T/C (dose: 1.6 mg/kg/injection, schedule: Q04DX003 (ip), vehicle: other): 295 % of control
T/C (dose: 3.0 mg/kg/injection, schedule: Q04DX003 (ip), vehicle: saline with Tween-80): 197 % of control
T/C (dose: 3.2 mg/kg/injection, schedule: Q04DX003 (ip), vehicle: other): 295 % of control
T/C (dose: 6.0 mg/kg/injection, schedule: Q04DX003 (ip), vehicle: saline with Tween-80): 288 % of control
T/C (dose: 6.4 mg/kg/injection, schedule: Q04DX003 (ip), vehicle: other): 295 % of control
T/C (dose: 12.0 mg/kg/injection, schedule: Q04DX003 (ip), vehicle: saline with Tween-80): 288 % of control

CC(=O)NC1CCCCC1
T/C (dose: 33.0 mg/kg/injection, schedule: Q04DX003 (ip), vehicle: saline with Tween-80): 100 % of control
T/C (dose: 75.0 mg/kg/injection, schedule: Q04DX003 (ip), vehicle: saline with Tween-80): 93 % of control
T/C [3]: 150 % of control

CC(=O)ON=C1C=CC(=C(C#N)c2ccccc2)C=C1
T/C [4]: 86 % of control
T/C [5]: 86 % of control
T/C [6]: 92 % of control

O=C(/C=C\c1ccccc1)/C=C/c1ccccc1
T/C [6]: 104 % of control
T/C [3]: 102 % of control
T/C [7]: 96 % of control
T/C (dose: 200.0 mg/kg/injection, schedule: Q04DX003 (ip), vehicle: saline with Tween-80): 100 % of control
T/C [8]: 92 % of control
T/C (dose: 400.0 mg/kg/injection, schedule: Q04DX003 (ip), vehicle: saline with Tween-80): 102 % of control

O=C(CN1CC1)NCCCCCCCCNC(=O)CN1CC1
T/C (dose: 6.25 mg/kg/injection, schedule: Q01DX009 (ip), vehicle: Klucel (hydroxypropylcellulose) (HPC)): 124 % of control
T/C [9]: 93 % of control

O=S(=O)(SC(S(=O)(=O)c1ccccc1)S(=O)(=O)c1ccccc1)c1ccccc1
T/C [10]: 99 % of control
T/C [9]: 99 % of control
T/C [11]: 105 % of control
T/C [1]: 107 % of control
T/C [2]: 90 % of control

CCCCCCCCCCCCCCCCNS(=O)(=O)c1ccc(NN)cc1
T/C [10]: 93 % of control
T/C [9]: 96 % of control
T/C [11]: 89 % of control and 90 % of control

CCOC(=O)N1C(=O)c2ccccc2C1=O
T/C [4]: 94 % of control
T/C [5]: 94 % of control
T/C [6]: 86 % of control

CCOC(=O)c1cc(-c2ccc(Cl)cc2)nc2c(Cl)cc(Cl)cc12
T/C [6]: 101 % of control
T/C [7]: 89 % of control
T/C [8]: 88 % of control

CCCCN(C)N=Nc1ccc(CCCC(=O)OCC)cc1
T/C (dose: 1.56 mg/kg/injection, schedule: Q01DX009 (ip), vehicle: saline): 97 % of control
T/C (dose: 3.13 mg/kg/injection, schedule: Q01DX009 (ip), vehicle: saline): 100 % of control
T/C (dose: 6.25 mg/kg/injection, schedule: Q01DX009 (ip), vehicle: saline): 100 % of control

CC(=O)CC(=O)NCCN1CCN=C1C
T/C [12]: 109 % of control
T/C (dose: 200.0 mg/kg/injection, schedule: Q01DX009 (ip), vehicle: saline): 116 % of control
T/C [13]: 110 % of control

C=C1COC(O)(C2OCOC(C3CC(=O)NC(=O)C3)C2O)C1C (stereo not drawn)
T/C (dose: 2.0 micrograms/kg/injection, schedule: Q01DX009 (ip), vehicle: water): 104 % of control
T/C (dose: 4.0 micrograms/kg/injection, schedule: Q01DX009 (ip), vehicle: water): 104 % of control
T/C (dose: 8.0 micrograms/kg/injection, schedule: Q01DX009 (ip), vehicle: water): 100 % of control
T/C (dose: 16.0 micrograms/kg/injection, schedule: Q01DX009 (ip), vehicle: water): 108 % of control
T/C (dose: 32.0 micrograms/kg/injection, schedule: Q01DX009 (ip), vehicle: water): 103 % of control

Cn1nc(-c2ccccc2)nc1[N+](=O)[O-]
T/C [14]: 100 % of control
T/C [4]: 96 % of control
T/C [5]: 106 % of control
T/C [6]: 86 % of control

COC(=O)[C@@]12OC[C@]34[C@H]([C@@H](O)[C@@H]1O)[C@@]1(C)CC(=O)C(O)=C(C)[C@@H]1C[C@H]3OC(=O)[C@H](OC(=O)/C=C(\C)C(C)C)[C@@H]24
T/C (dose: 0.03 mg/kg/injection, schedule: Q01DX009 (ip), vehicle: saline + alcohol): 122 % of control
T/C (dose: 0.12 mg/kg/injection, schedule: Q01DX009 (ip), vehicle: other): 169 % of control
T/C (dose: 0.12 mg/kg/injection, schedule: Q01DX009 (ip), vehicle: saline + alcohol): 153 % of control
T/C (dose: 0.25 mg/kg/injection, schedule: Q01DX009 (ip), vehicle: other): 155 % of control
T/C (dose: 0.25 mg/kg/injection, schedule: Q01DX009 (ip), vehicle: saline + alcohol): 154 % of control
T/C (dose: 0.5 mg/kg/injection, schedule: Q01DX009 (ip), vehicle: other): 160 % of control
T/C (dose: 0.5 mg/kg/injection, schedule: Q01DX009 (ip), vehicle: saline + alcohol): 154 % of control and 157 % of control
T/C (dose: 1.0 mg/kg/injection, schedule: Q01DX009 (ip), vehicle: other): 164 % of control
T/C (dose: 1.0 mg/kg/injection, schedule: Q01DX009 (ip), vehicle: saline + alcohol): 158 % of control and 164 % of control
T/C (dose: 2.0 mg/kg/injection, schedule: Q01DX009 (ip), vehicle: saline + alcohol): 177 % of control
T/C (dose: 125.0 micrograms/kg/injection, schedule: Q01DX009 (ip), vehicle: saline + alcohol): 160 % of control
T/C (dose: 250.0 micrograms/kg/injection, schedule: Q01DX009 (ip), vehicle: saline + alcohol): 160 % of control
T/C (dose: 500.0 micrograms/kg/injection, schedule: Q01DX009 (ip), vehicle: saline + alcohol): 168 % of control
T/C (dose: 1000.0 micrograms/kg/injection, schedule: Q01DX009 (ip), vehicle: saline + alcohol): 164 % of control
T/C (dose: 2000.0 micrograms/kg/injection, schedule: Q01DX009 (ip), vehicle: saline + alcohol): 97 % of control

ClCCN(CCCl)CCCN1c2ccccc2Sc2ccc(Cl)cc21
T/C (dose: 3.12 mg/kg/injection, schedule: Q01DX009 (ip), vehicle: saline with Tween-80): 120 % of control
T/C [14]: 120 % of control
T/C [4]: 117 % of control

CCCCCCCCCCCCCOC(=O)CC(C(=O)OCCCCCCCCCCCCC)S(=O)(=O)O (stereo not drawn)
T/C [10]: 106 % of control
T/C [9]: 108 % of control
T/C [11]: 106 % of control
T/C [1]: 93 % of control
T/C [2]: 111 % of control

OCC(O)c1ccccn1 (stereo not drawn)
T/C [12]: 123 % of control
T/C [13]: 123 % of control

O=C1C(Cl)=C(Cl)C(=O)c2ccccc21
T/C (dose: 5.0 mg/kg/injection, schedule: Q01DX009 (ip), vehicle: saline with Tween-80): 87 % of control
T/C (dose: 10.0 mg/kg/injection, schedule: Q01DX009 (ip), vehicle: saline with Tween-80): 87 % of control

Nc1ccc(Cl)cc1N
T/C [14]: 104 % of control
T/C [4]: 105 % of control
T/C [5]: 102 % of control
T/C [6]: 99 % of control

Cc1c(O)ccc(=O)n1O
T/C (dose: 40.0 mg/kg/injection, schedule: Q01DX009 (ip), vehicle: saline with Tween-80): 97 % of control
T/C (dose: 80.0 mg/kg/injection, schedule: Q01DX009 (ip), vehicle: saline with Tween-80): 101 % of control and 102 % of control and 111 % of control
T/C (dose: 160.0 mg/kg/injection, schedule: Q01DX009 (ip), vehicle: saline with Tween-80): 94 % of control (2×) and 111 % of control
T/C (dose: 320.0 mg/kg/injection, schedule: Q01DX009 (ip), vehicle: saline with Tween-80): 97 % of control
